Results reported in patent publication US11389449B2, “Treatment of metabolic syndrome with an sGC stimulator” (Cyclerion Therapeutics, Inc., priority 2017, dated 2022).

What was measured:
ZSF1 obese rats [1] = experiment: Oral glucose tolerance test (OGTT) and fasting glucose in ZSF1 rats at week 10; type: in vivo, rat
Method: Male ZSF1 rats (body weight 400-430 grams (lean control) and 500-605 grams (obese) at baseline) were used for this study. All animals were housed in a room under controlled conditions of temperature (72±8° F.), relative humidity of 30-70% and a 12-hour light-dark cycle (lights on at 6:00 AM and off at 6:00 PM) at a fully AAALAC accredited, USDA registered and OLAW assured laboratory animal research facility. All animals were allowed free access to rodent chow (Purina 5008+/−test articles) and water (+/−enalapril).
(§1) Blood and 24-hour urine samples were obtained from all animals at day 0 (15 weeks of age; prior to the initiation of enalapril treatment). Animals in Groups 3, 7, 8 and 9 were placed on drinking water containing enalapril and kept on Purina 5008 rodent chow (C13000). Animals in Group 1, 2, 4, 5 and 6 were kept on Purina 5008 rodent chow and drinking water. Ten days after the initiation of enalapril treatment, blood and 24-hour urine samples were collected from all animals. After day 10 blood and urine collections, animals in Groups 4, 5 and 6 received Compound I at 1, 3 and 10 mg/kg/day, respectively for 11 weeks. In addition to enalapril treatment, animals in Groups 7, 8 and 9 received Compound I at 1, 3 and 10 mg/kg/day, respectively for an additional 11 weeks.
10 weeks after the initiation of Compound I treatment, animals (27 weeks of age) were fasted for 18 hours. Serum samples were collected for the measurement of fasting insulin levels. Serum insulin levels were determined using the Rat Insulin ELISA kit (Cat #ELR-Insulin, RayBiotech, Inc.)
For OGTT, animals were given glucose solution (50% Dextrose) at 2 g/kg via oral gavage. Blood samples were collected prior to oral glucose administration (0 minute) and 30, 60, 90, 120 and 180 minutes after administration. Blood glucose levels were measured using a standard blood glucose monitoring system (AlphaTRAK). The blood glucose reading at time 0 (prior to glucose administration) corresponds to the fasting glucose measurement.
The data are expressed as mean±SEM. […] One-tailed tests were used for comparison of variables. Statistical significance is indicated by P values less than 0.05.

ZSF1 obese rats [2] = experiment: ZSF1 rat study: serum clinical chemistry (cholesterol, triglycerides), body weight, clinical observations; type: in vivo
From the text: as §1
Body weight and 24-hour water intake were obtained at least once every other week. 24-hour food intake was measured at baseline and week 8.
Plasma (for biomarker) and serum (for clinical chemistry analysis) samples were collected from all treatment groups at baseline, day 10, weeks 5 and 9 prior to placing the animals into the metabolic cages. Plasma samples were obtained from Groups 3-9 for measurement of compound exposure levels at weeks 5 and 11. Terminal plasma and serum samples were obtained at necropsy.
For serum samples, blood was collected in serum separator tubes, maintained at room temperature for at least 30 minutes and then centrifuged at 6000 rpm for 10 minutes. Serum samples were stored at −80° C. until analysis. Urine and serum samples were analyzed using the Randox Daytona Clinical Chemistry Analyzer. All measurements were performed in accordance with manufacturer's instructions.
Animal #8 (in Group 3, ZSF1—enalapril 3 mg/kg/day) was found dead 3 days after the initiation of enalapril treatment.

[3] = system: obese/high fat diet C57Bl/6J mice; experiment: Diet induced obesity (DIO) mouse model: body weight and food intake; type: in vivo; conditions: DIO HFD mice, approx 6 mg/kg in diet
From the text: (§2) The objective of this animal study was to evaluate the effects of Compound I in the mouse diet induced obesity (DIO) model. Assessments included body weight, food intake, oral glucose tolerance test (OGTT) and fasting plasma biomarkers of metabolic control.
(§3) Male C57Bl/6J mice with baseline body weights of 25.0-29.0 grams (lean controls) and 31.5-45.0 grams (obese/high fat diet treated) respectively, were used for this study. The lean mice (n=8) were maintained on a standard chow diet. The obese mice were given 60% high fat diet (HFD) starting at 6 weeks of age. All animals were allowed free access to drinking water and chow. The study was begun when the mice were 12 weeks of age and concluded after 4 weeks (16 weeks of age). The obese control group (n=8 mice) was maintained on HFD. The Compound I group (n=8 obese mice) was treated with HFD containing 90 mg Compound I/kg (an approximate dose of 6 mg/kg). Body weights were determined twice weekly and food intake was measured daily for 28 days. An OGTT was performed on each animal at day 28 or 29 and the animals were sacrificed on the following day. On the terminal day, 3 hour fasted blood was collected for compound concentrations and plasma biomarkers analysis including glucose, insulin and triglycerides. Organs were collected, weighed and snap frozen in liquid nitrogen for further analysis.

[4] = system: obese/high fat diet C57Bl/6J mice; experiment: DIO mouse model: oral glucose tolerance test; type: in vivo; conditions: DIO HFD mice, approx 6 mg/kg in diet, week 4
From the text: as §2, §3

[5] = system: obese/high fat diet C57Bl/6J mice; experiment: DIO mouse model: fasting plasma biomarkers and liver triglycerides; type: in vivo; conditions: DIO HFD mice, approx 6 mg/kg in diet
From the text: as §2, §3

[6] = obese ZSF1 rats, 3 and 10 mg/kg, compared to placebo and enalapril, not statistically significant

OC(CNc1nc(-c2cc(-c3ccon3)n(Cc3ccccc3F)n2)ncc1F)(C(F)(F)F)C(F)(F)F [Compound I]
Fasting Blood Glucose (0 minute) (ZSF1 obese rats [1]; Compound I 1 mpk): 267 ± 38 mg/dL
OGTT Area Under Curve (AUC) (ZSF1 obese rats [1]; Compound I 1 mpk): 84945 ± 5344
OGTT Blood Glucose 120 minutes (ZSF1 obese rats [1]; Compound I 1 mpk): 475 ± 33 mg/dL
OGTT Blood Glucose 180 minutes (ZSF1 obese rats [1]; Compound I 1 mpk): 398 ± 30 mg/dL
Fasting Blood Glucose (0 minute) (ZSF1 obese rats [1]; Compound I 3 mpk): 202 ± 10 mg/dL
OGTT Area Under Curve (AUC) (ZSF1 obese rats [1]; Compound I 3 mpk): 77402 ± 3526
OGTT Blood Glucose 120 minutes (ZSF1 obese rats [1]; Compound I 3 mpk): 424 ± 19 mg/dL
OGTT Blood Glucose 180 minutes (ZSF1 obese rats [1]; Compound I 3 mpk): 355 ± 24 mg/dL
Fasting Blood Glucose (0 minute) (ZSF1 obese rats [1]; Compound I 10 mpk): 194 ± 9 mg/dL
OGTT Area Under Curve (AUC) (ZSF1 obese rats [1]; Compound I 10 mpk): 77090 ± 1817
OGTT Blood Glucose 120 minutes (ZSF1 obese rats [1]; Compound I 10 mpk): 421 ± 11 mg/dL
OGTT Blood Glucose 180 minutes (ZSF1 obese rats [1]; Compound I 10 mpk): 385 ± 14 mg/dL
reduction of weight (ZSF1 obese rats [2]; obese ZSF1 rats): No effects were observed
effect on cholesterol levels (ZSF1 obese rats [2]; [6]): some reduction in cholesterol was observed
effect on triglyceride levels (ZSF1 obese rats [2]; [6]): some reduction in TGs was observed
clinical observation (ZSF1 obese rats [2]; rat, in vivo, 1 mg/kg/day): enlarged left kidney's filled with brown fluid consistent with hydronephrosis
body weight gain change vs obese controls ([3]; Day 28, P<0.0001): −37%
increase in food intake vs obese controls ([3]; Day 28, P<0.05): 11%
cumulative food intake vs obese controls ([3]; days 12-14 and 16-28): Significant increases
body weight gain vs obese controls ([3]; from 0.5 weeks for the duration of the study): significant reductions
Fasting blood glucose [4]: not reduced
OGTT area above baseline change vs obese controls ([4]; P<0.05): −47%
OGTT area under the curve change vs obese controls ([4]; P<0.05): −22%
blood glucose excursion in OGTT vs obese controls ([4]; from 30 to 120 minutes): significant reductions
Fasting plasma glucose ([5]; after 4 weeks): unchanged
plasma insulin change vs obese controls ([5]; after 4 weeks, P<0.01): −53%
plasma triglycerides change vs obese controls ([5]; after 4 weeks, P<0.01): −30%
circulating and liver triglycerides ([5]; compared to obese controls): lowered
